# Laboratory results as given in US20240374529A1, “PHARMACEUTICAL COMPOSITION COMPRISING POLYSACCHARIDE” (HUNG, MIEN-CHIE, priority 2021, published 2024).
# What was measured:
# Format in all cases: cell-based
# [1] = system: MDA-MB-231; test: Cytotoxicity, triple negative breast cancer cell line MDA-MB-231; conditions: Homo sapiens
# [2] = system: 4T1; test: Cytotoxicity, triple negative breast cancer cell line 4T1; conditions: Mus musculus
# [3] = system: CFPAC-1; test: Cytotoxicity, pancreatic cancer cell line CFPAC-1; conditions: Homo sapiens
# [4] = system: BxPC3; test: Cytotoxicity, pancreatic cancer cell line BxPC3; conditions: Homo sapiens, BXPC-3
# [5] = system: SKOV3; test: Cytotoxicity, ovarian cancer cell line SKOV3; conditions: Homo sapiens, SK-OV-3
compound,measurement,setting,value
"CC(=O)O[C@@]12CO[C@@H]1C[C@H](O)[C@@]1(C)C(=O)[C@H](O)C3=C(C)[C@@H](OC(=O)[C@H](O)[C@@H](NC(=O)OC(C)(C)C)c4ccccc4)C[C@@](O)([C@@H](OC(=O)c4ccccc4)[C@H]21)C3(C)C [DTX, docetaxel]",IC50,[1],18.7 nM
same,IC50,[2],29.1 nM
same,IC50,[3],38.8 nM
same,IC50,[4],22.9 nM
same,IC50,[5],10.1 nM
